Measured values published in patent publication US20170121295A1, “POLYCYCLIC LPA1 ANTAGONIST AND USES THEREOF” (AMIRA PHARMACEUTICALS, INC., priority 2010, published 2017).
Like-named read-outs stand apart in the source and are kept apart here.

Assays:
Human LPA1 = biological target: T1, Human LPA1 (Homo sapiens, UniProt Q92633); experiment: LPA1 Calcium Flux Assay; format: cell-based; settings: human LPA1 expressing CHO cells, 10 nM LPA; read-out: Ca Flux IC50 LPA1
T1 construct: the full-length cDNA for human LPA1 was obtained by PCR of the reverse transcription reaction; expressed in transfected cells
Description: A 1.1 kb cDNA encoding the human LPA1 receptor was cloned from human lung. Human lung RNA (Clontech Laboratories, Inc. USA) was reverse transcribed using the RETROscript kit (Ambion, Inc.) and the full-length cDNA for human LPA1 was obtained by PCR of the reverse transcription reaction. The nucleotide sequence of the cloned human LPA1 was determined by sequencing and confirmed to be identical to the published human LPA1 sequence (An et al. Biochem. Biophys. Res. Commun. 231:619 (1997). The cDNA was cloned into the pCDNA5/FRT expression plasmid and transfected in CHO cells using lipofectamine 2000 (Invitrogen Corp., USA). Clones stably expressing human LPA1 were selected using hygromycin and identified as cells that show Ca-influx in response to LPA.
(§1) Human LPA1 or LPA3 expressing CHO cells are seeded at 20,000-45,000 cells per well in a 96-well poly-D-lysine coated plate one or two days before the assay. Prior to the assay, the cells are washed once with PBS and then cultured in serum-free media overnight. On the day of the assay, a calcium indicator dye (Calcium 4, Molecular Devices) in assay buffer (HBSS with Ca^2+ and Mg^2+ and containing 20 mM Hepes and 0.3% fatty-acid free human serum albumin) is added to each well and incubation continued for 1 hour at 37° C. 10 μl of test compound in 2.5% DMSO are added to the cells and incubation continued at room temperature for 30 minutes. Cells are the stimulated by the addition of 10 nM LPA and intracellular Ca^2+ measured using the Flexstation 3 (Molecular Devices). IC50s are determined using Graphpad prism analysis of drug titration curves.

[1] = Solubility in a range of solvents (crystallisation experiments); format: physicochemical; settings: organic solvents; water, cyclohexane, heptane unsuitable
Description: 20 mg of Compound 1 was weighed into a HPLC vial. 40 μL of ethanol was added and the vial was heated to reflux with a hot air gun. The solution was cooled to ambient temperature and the solids were filtered off. Crystalline Compound 1 (Pattern 1) was obtained as determined by XRPD. In the same manner as described from ethanol, the following solvents also provided crystalline Compound 1 (Pattern 1): methanol, 2-methoxyethanol, ethanol, 1-propanol, 2-propanol, 1-butanol, butyl acetate, acetone, methylethyl ketone, anisole, toluene. 5 Volumes (i.e. 100 μL) of the following solvents with heating also provided crystalline Compound 1 (Pattern 1): nitromethane, acetonitrile, ethyl acetate, cumene.
Compound 1 dissolved in 2 volumes (i.e. 40 μL) of the following solvents at ambient temperature: 1-4-dioxane, tetrahydrofuran. The vials were uncapped and allowed to slowly evaporate. This provided crystalline Compound 1 (Pattern 1).

[2] = Pharmacokinetics in Sprague-Dawley Rats; format: in vivo; settings: for mean dose adjusted exposure (AUC0-24/D) / Cmax / bioavailability / AUC(0-t): PO 1 mg/kg; for mean dose adjusted exposure (AUC0-24/D) / dose adjusted AUC value (AUC0-24/D) / Cmax / bioavailability: fasted; for Cmax / bioavailability / AUC(0-t): Sprague-Dawley, rat, plasma; for Cmax: read-out: maximal plasma concentration (Cmax); for bioavailability: read-out: apparent bioavailability; for AUC(0-t): fed, read-out: exposure (AUC0-24)
Description: The pharmacokinetics of Compound 1 and Compound 2 was assessed in male and female Sprague-Dawley rats (225-300 g at 10 weeks).
Compound 2 (1 mg/kg) was administered intravenously (IV) to fasted rats (n=3) as a solution in purified water via a bolus injection into the jugular vein (1 mg/mL; 1 mL/kg). Compound 1 (10 mg/kg) was administered orally (PO), to fasted (for at least 12 hours) or non-fasted rats (n=2 or 3) as a solution in 0.5% methylcellulose unless otherwise noted via an oral gavage to the stomach (3.33 mg/mL; 3 mL/kg). Non-fasted animals were fasted for at least 12 hours and then were given food ad libitum for 1 hour prior to dosing. Fasted animals were dosed 1, 10, 30, 100 or 300 mg/kg Compound 1 as a solution in 0.5% methylcellulose via an oral gavage to the stomach (0.69 mg/mL, 10 mg/mL, 33.3 mg/mL or 100 mg/mL) (n=2 or 3 per dose group). In a gastrointestinal study, rats were anesthetized and Compound 1 was administered directly to the duodenum, jcjunum or ilcum at 1 mg/kg in 0.5% methylcellulose.
Capsules were also administered with Compound 2. Capsules were size 9 gelatin (Torpac, San Diego, Calif.).
Blood samples (approximately 300 μL total blood) were taken from each rat via the jugular vein cannula at pre-dose, and an initial time of 5 or 15 min and then various time points up to 24 hours post-dose (10-11 samples per animal). Samples were collected on wet ice in tubes containing potassium EDTA. After each blood draw, the cannula was flushed with an equivalent volume of heparinized saline (0.1 mL at 40 units/mL). Plasma samples, prepared by centrifugation of whole blood, were stored frozen (−80° C.) prior to analysis.

Human LPA3 = biological target: T2, Human LPA3 (Homo sapiens, UniProt Q9UBY5); experiment: LPA3 Calcium Flux Assay; format: cell-based; settings: human LPA3 expressing CHO cells, 10 nM LPA; read-out: Ca Flux IC50 LPA3
T2 construct: The full-length cDNA fragment for human LPA3 was obtained by PCR from the vector
T2 sequence (Q9UBY5 1-353): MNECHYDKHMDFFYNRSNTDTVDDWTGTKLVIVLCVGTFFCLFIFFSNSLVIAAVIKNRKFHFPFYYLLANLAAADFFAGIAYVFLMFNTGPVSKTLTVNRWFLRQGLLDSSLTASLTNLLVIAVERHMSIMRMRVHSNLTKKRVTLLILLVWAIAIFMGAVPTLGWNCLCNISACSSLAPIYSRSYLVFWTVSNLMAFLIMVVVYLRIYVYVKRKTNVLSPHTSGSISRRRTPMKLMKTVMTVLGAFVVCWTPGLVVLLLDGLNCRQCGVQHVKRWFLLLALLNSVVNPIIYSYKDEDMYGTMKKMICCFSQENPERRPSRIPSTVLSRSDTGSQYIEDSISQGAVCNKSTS
Description: A vector containing the human LPA3 receptor cDNA was obtained from the Missouri S&T cDNA Resource Center (www.cdna.org). The full-length cDNA fragment for human LPA3 was obtained by PCR from the vector. The nucleotide sequence of the cloned human LPA3 was determined by sequencing and confirmed to be identical to the published human LPA3 sequence (NCBI accession number NM_012152). The cDNA was cloned into the pCDNA5/FRT expression plasmid and transfected in CHO cells using lipofectamine 2000 (Invitrogen Corp., USA). Clones stably expressing human LPA3 were selected using hygromycin and identified as cells that show Ca-influx in response to LPA.
as §1

T1 sequence (Q92633 whole entry): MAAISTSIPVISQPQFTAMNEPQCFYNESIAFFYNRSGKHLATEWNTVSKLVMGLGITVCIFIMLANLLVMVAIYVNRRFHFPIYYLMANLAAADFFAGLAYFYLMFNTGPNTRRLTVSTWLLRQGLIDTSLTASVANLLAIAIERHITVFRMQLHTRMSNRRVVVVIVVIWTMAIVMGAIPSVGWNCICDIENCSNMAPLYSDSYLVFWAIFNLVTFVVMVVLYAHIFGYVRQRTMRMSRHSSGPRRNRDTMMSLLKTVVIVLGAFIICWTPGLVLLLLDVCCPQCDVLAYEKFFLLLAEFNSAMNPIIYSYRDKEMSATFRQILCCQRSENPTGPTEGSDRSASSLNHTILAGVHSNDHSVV

- IC50 (Human LPA1): < 0.2 µM
- solubility in a range of solvents [1]: good solubility in a range of solvents
- mean dose adjusted exposure (AUC0-24/D) ([2]; females): 1.9 µg·h/mL
- mean dose adjusted exposure (AUC0-24/D) ([2]; males): 2.1 µg·h/mL
- dose adjusted AUC value (AUC0-24/D) ([2]; PO 10 mg/kg, female rats): 2.7 µg·h/mL
- dose adjusted AUC value (AUC0-24/D) ([2]; PO 10 mg/kg, male rats): 2.4 µg·h/mL
- dose proportionality of exposure ([2]; PO 30, 100 and 300 mg/kg): greater than dose proportional
- dose proportionality of exposure ([2]; PO doses of 1 and 10 mg/kg, suspension): dose proportional
- Cmax ([2]; female rats): 300 ng/mL
- bioavailability ([2]; female): 58%
- Cmax ([2]; male rats): 400 ng/mL
- bioavailability ([2]; male): 63%
- AUC(0-t) ([2]; female rats): 1400 ng·h/mL
- AUC(0-t) ([2]; male rats): 1600 ng·h/mL
- dose normalized exposure ([2]; oral, 10 mg/kg): 5.1 µg·h/mL
- IC50 (Human LPA3): > 1 µM
SMILES: Cc1noc(-c2ccc(-c3ccc(C4(C(=O)O)CC4)cc3)cc2)c1NC(=O)O[C@H](C)c1ccccc1 [Compound 1, 1-{4′-[3-methyl-4-((R)-1-phenyl-ethoxycarbonylamino)-isoxazol-5-yl]-biphenyl-4-yl}-cyclopropanecarboxylic acid]
- exposure in fed vs. fasted animals ([2]; PO 10 mg/kg): slightly lower exposure in fed animals vs. fasted
- regional absorption ([2]; administered directly to duodenum, jejunum or ileum at 1 mg/kg): good oral bioavailability along the entire gastrointestinal tract
